The assay deals with T1, human ΔF508-CFTR (Homo sapiens, UniProt P13569, DEL508-508).
T1 construct: expressed in transfected cells
Briefly: CFTR-YFP high throughput assay, CFTR corrector protocol (YFP iodide flux quench). In kind it is cell-based. The conditions noted are these: FRT cells expressing human ΔF508-CFTR and YFP-H148Q/I152L, 24-26 h incubation with compound; for Emax: normalized to the positive control, read-out: EMAX (% Efficacy, EMAX normalized to the positive control); for EC50: stimulated with 20 μM Forskolin & 30 μM P3. As for the experimental part:
Assays for Detecting and Measuring the Effect of Compounds on dF508-CFTR Channels CFRT-YFP High Throughput Assay-CFTR Corrector Protocol:
This protocol is designed to selectively screen small molecule compounds for F508del CFTR corrector activities in the HTS YFP flux assay. In this protocol, the cells are incubated with testing compounds for 24 hours, washed with PBS, stimulated with forskolin and a standard potentiator, and read on a 384-well HTS plate reader, such as the Hamamatsu FDDD-6000.
YFP fluorescence intensity is acquired at high speed before and after iodide buffer is injected to the assay cells. Iodide enters the cells via active CFTR channels in the plasma membrane, and quenches the YFP fluorescence. The rate of fluorescence quenching is proportionally related to the total CFTR activities in the cell membrane. dF508-CFTR corrector accelerates YFP quenching by increasing the number of CFTR molecules in the testing cell plasma membrane.
This method was initially developed for bench top plate readers (Galietta et al., 2001), and was adapted to the HTS format (Sui et al. Assay Drug Dev. Technol. 2010).
Fisher Rat Thyroid (FRT) cells stably expressing both human ΔF508-CFTR and a halide-sensitive yellow fluorescent protein (YFP-H148Q/I152L 25,22) (Galietta et al., Am. J. Physiol Cell Physiol, 281(5), C1734, 2001) were cultured on plastic surface in Coon's modified Ham's F12 medium supplemented with FBS 10%, L-glutamine 2 mM, penicillin 100 U/ml, and streptomycin 100 μg/ml. G418 (0.75-1.0 mg/ml) and zeocin (3.2 ug/ml) were used for selection of FRT cells expressing ΔF508-CFTR and YFP. For primary screening, FRT cells were plated into 384-well black wall, transparent bottom microtiter plates (Costar; Corning Inc.) at a cell density of 20,000-40,000 per well. Test compound was applied to the cells at varying concentrations ranging from 2 nM-[…] in either a 2-fold or 3-fold dilution series. Cells were incubated in a cell culture incubator at 37° C. with 5% CO2 for 24-26 h. Assay plates were washed with DPBS media (Thermo, cat #SH30028.02) to remove unbound cells and compound. Stimulation media (25 μL) containing 20 μM Forskolin & 30 μM P3 [6-(Ethyl-phenyl-sulfonyl)-4-oxo-1,4-dihydro-quinoline-3-carboxylic acid 2-methoxy-benzylamide] in Hams F-12 coon's modified media was added to the plate wells and incubated at room temperature for 60-120 min. 25 μL of HEPES-PBS -I buffer (10 mM HEPES, 1 mM MgCl2, 3 mM KCl, 1 mM CaCl2, 150 mM NaI) was then added and fluorescence quench curves (Excitation 500 nm/Emission 540 nm; exposure 136 ms) were immediately recorded on an FDSS-6000 plate reader (Hamamatsu). Quench rates were derived from least squares fitting of the data as described by Sui et al. (2010).

Structures are written as SMILES.

Data on 16 molecules can be found in US9771327B2, “Compounds and methods for the treatment of cystic fibrosis” (FLATLEY DISCOVERY LAB, LLC, priority 2013, dated 2017).

T1 sequence (P13569 with tags, fused parts or gaps DEL508-508): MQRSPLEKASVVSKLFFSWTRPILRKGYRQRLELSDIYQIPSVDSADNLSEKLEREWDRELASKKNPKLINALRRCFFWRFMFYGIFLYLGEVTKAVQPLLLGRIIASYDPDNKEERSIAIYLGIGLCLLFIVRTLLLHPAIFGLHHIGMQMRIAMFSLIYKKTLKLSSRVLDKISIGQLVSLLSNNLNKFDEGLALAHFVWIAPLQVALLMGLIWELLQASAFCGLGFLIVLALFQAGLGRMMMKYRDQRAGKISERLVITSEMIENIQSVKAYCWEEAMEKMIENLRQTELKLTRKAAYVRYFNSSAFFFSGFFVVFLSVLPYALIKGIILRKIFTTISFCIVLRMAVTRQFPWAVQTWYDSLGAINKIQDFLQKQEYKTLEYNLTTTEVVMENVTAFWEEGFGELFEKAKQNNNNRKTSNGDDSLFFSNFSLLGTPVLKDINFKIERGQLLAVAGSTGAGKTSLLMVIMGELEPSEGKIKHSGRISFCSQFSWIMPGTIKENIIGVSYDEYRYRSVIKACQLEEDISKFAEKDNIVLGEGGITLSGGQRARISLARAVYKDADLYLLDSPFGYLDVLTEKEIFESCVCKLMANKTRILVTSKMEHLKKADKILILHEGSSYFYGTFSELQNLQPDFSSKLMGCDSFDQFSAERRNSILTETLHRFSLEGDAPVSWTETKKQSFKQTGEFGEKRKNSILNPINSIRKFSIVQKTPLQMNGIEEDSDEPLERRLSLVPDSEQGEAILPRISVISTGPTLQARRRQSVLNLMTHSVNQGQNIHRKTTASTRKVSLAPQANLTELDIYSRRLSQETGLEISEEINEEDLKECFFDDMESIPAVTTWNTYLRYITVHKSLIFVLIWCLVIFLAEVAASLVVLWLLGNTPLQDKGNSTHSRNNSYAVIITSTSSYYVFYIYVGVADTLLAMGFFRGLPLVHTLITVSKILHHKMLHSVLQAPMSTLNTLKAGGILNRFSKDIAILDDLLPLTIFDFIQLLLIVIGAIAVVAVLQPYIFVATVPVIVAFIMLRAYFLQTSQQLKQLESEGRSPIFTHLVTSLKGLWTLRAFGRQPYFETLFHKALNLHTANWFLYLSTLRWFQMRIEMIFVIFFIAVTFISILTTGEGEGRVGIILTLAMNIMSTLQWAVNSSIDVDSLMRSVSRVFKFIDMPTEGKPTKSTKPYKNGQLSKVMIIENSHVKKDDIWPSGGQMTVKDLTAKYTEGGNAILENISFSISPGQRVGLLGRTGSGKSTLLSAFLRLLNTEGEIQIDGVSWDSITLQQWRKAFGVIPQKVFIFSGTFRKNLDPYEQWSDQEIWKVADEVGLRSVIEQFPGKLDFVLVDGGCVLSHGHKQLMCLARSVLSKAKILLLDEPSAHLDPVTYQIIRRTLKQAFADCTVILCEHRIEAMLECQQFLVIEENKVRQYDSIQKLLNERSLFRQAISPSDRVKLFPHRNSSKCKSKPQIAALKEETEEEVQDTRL

On to `COc1ccc(S(=O)(=O)N2CCC(n3c(-c4ccccc4Cl)nc4cccnc43)CC2)cc1Cl` [Example 6, 3-(1-((3-Chloro-4-methoxyphenyl)sulfonyl)piperidin-4-yl)-2-(2-chlorophenyl)-3H-imidazo[4,5-b]pyridine], for which the maximal effect (Emax) is 30 to 80% and the EC50 was under 10 µM.

With `COc1ccc(S(=O)(=O)N2CCC(n3c(-c4ccccc4)nc4cccnc43)CC2)cc1F` [Example 18], the maximum response (Emax) was 30 to 80% and the EC50 is under 10 µM.

On to `COc1ccc(S(=O)(=O)N2CCC(n3c(-c4ccccc4)nc4cc(Cl)cnc43)CC2)cc1Cl` [Example 35], for which the Emax lay within 30 to 80% and the concentration giving a half-maximal response (EC50) was under 10 µM.

As to `Cc1ccc(S(=O)(=O)N2CCC(n3c(-c4ccccc4)nc4cccnc43)CC2)cc1` [Example 17], the maximal response (Emax) lay within 30 to 80% and the 50% effective concentration (EC50) was under 10 µM.

For the molecule `COc1ccc(S(=O)(=O)N2CCC(n3c(-c4cccc(Cl)c4)nc4cccnc43)CC2)cc1Cl` [Example 22], the Emax was in the range of 30 to 80% and the EC50 is under 10 µM.

For `COc1ccc(S(=O)(=O)N2CCC(n3c(-c4nc5ccccc5[nH]4)nc4cccnc43)CC2)cc1Cl` [Example 33], the maximum response (Emax) fell in the range of 30 to 80% and the EC50 lay in the range of 10 to 20 µM.

Consider `COc1ccc(S(=O)(=O)N2CCC(n3c(-c4ccccc4Cl)nc4ccc(C)nc43)CC2)cc1F` [Example 8, 2-(2-Chlorophenyl)-3-(1-((3-fluoro-4-methyoxyphenyl)sulfonyl)piperidin-4-yl)-5-methyl-3H-imidazo[4,5-b]pyridine], for which the Emax lay in the range of 30 to 80% and the EC50 is under 10 µM.

Turning to `Cc1ccc2nc(-c3ccncc3Cl)n(C3CCN(S(=O)(=O)c4ccc5c(c4)OCO5)CC3)c2n1` [Example 14, 3-(1-(Benzo[d][1,3]dioxol-5-ylsulfonyl)piperidin-4-yl)-2-(3-chloropyridin-4-yl)-5-methyl-3H-imidazo[4,5-b]pyridine], the Emax lay within 10 to 30% and the concentration giving a half-maximal response (EC50) was over 20 µM.

Take `COc1ccc(S(=O)(=O)N2CCC(n3c(-c4cccnc4)nc4cccnc43)CC2)cc1Cl` [Example 27]: the Emax is 30 to 80% and the EC50 was under 10 µM.

Regarding `COc1ccc(S(=O)(=O)N2CCC(n3c(C4CCCCC4)nc4cccnc43)CC2)cc1Cl` [Example 31], the Emax was in the range of 30 to 80% and the half-maximal effective concentration (EC50) is under 10 µM.

Consider `Cc1ccc2nc(-c3ccccc3Cl)n(C3CCN(S(=O)(=O)c4ccc(C)c(Cl)c4)CC3)c2n1` [Example 7, 3-(1-((3-Chloro-4-methylphenyl)sulfonyl)piperidin-4-yl)-2-(2-chlorophenyl)-5-methyl-3H-imidazo[4,5-b]pyridine], for which the maximum response (Emax) fell in the range of 30 to 80% and the concentration giving a half-maximal response (EC50) was under 10 µM.

`COc1ccc(S(=O)(=O)N2CCC(n3c(-c4ccc5[nH]cnc5c4)nc4cccnc43)CC2)cc1Cl` [Example 34]: the maximal effect (Emax) was in the range of 30 to 80% and the EC50 was under 10 µM.

Turning to `Cc1ccc2nc(-c3ccncc3Cl)n(C3CCN(S(=O)(=O)c4ccc5c(c4)OC(F)(F)O5)CC3)c2n1` [Example 13, 2-(3-Chloropyridin-4-yl)-3-(1-((2,2-difluorobenzo[d][1,3]dioxol-5-yl)sulfonyl)piperidin-4-yl)-5-methyl-3H-imidazo[4,5-b]pyridine], the maximum response (Emax) is 30 to 80% and the EC50 was under 10 µM.

Consider `COc1ccc(S(=O)(=O)N2CCC(n3c(-c4ccc(Cl)cc4Cl)nc4cccnc43)CC2)cc1Cl` [Example 12, 3-(1-((3-Chloro-4-methoxyphenyl)sulfonyl)piperidin-4-yl)-2-(2,4-dichlorophenyl)-3H-imidazo[4,5-b]pyridine], for which the Emax is 10 to 30% and the concentration for a half-maximal effect (EC50) is under 10 µM.

As for `COc1ccc(C(=O)N2CCC(n3c(-c4ccccc4)nc4cccnc43)CC2)cc1Cl` [Example 21], the maximum response (Emax) was 10 to 30% and the EC50 was over 20 µM.

`COc1ccc(S(=O)(=O)N2CCC(n3c(-c4ccccc4)nc4ccc(Cl)nc43)CC2)cc1Cl` [Example 36]: the Emax is 10 to 30% and the EC50 was under 10 µM.
